# Where “and” joins values, the source holds several entries; their conditions need not be identical. Identical values can stand only once. Counter-ions that a name gives are not always drawn. Like-named read-outs stand apart in the source and are kept apart here. Non-standard residues stand in square brackets, D forms with d. Residues, ends and D or L forms follow the SMILES beside them. Nle = CCCC[C@H](N)C(=O)O
# What was measured:
# SARS-CoV-2 Mpro [1] = target: T1, SARS-CoV-2 Mpro (Severe acute respiratory syndrome coronavirus 2, UniProt P0DTC1); assay: biochemical; conditions: for inhibition of Mpro protease activity: FRET assay
# Experimental: A cleavage site is indicated by an asterisk. […] N = 3, values are represented as mean ± SE.
# For the determination of half-maximal inhibitory concentrations (IC50) of MG-101 and GC376 (BPS Bioscience), a synthetic substrate of Mpro containing FRET pair and Mpro nsp4/5 cleavage site (indicated by an arrow, Dabcyl-KTSAVLQ ↓ SGFRKME-Edans) (BPS Bioscience) was used for the FRET-based cleavage assay. The assay was performed in 96-well, black, flat-bottomed microtiter plates (Greiner Bio-One, Germany) with a final volume of 50 μl. Mpro (a final concentration of 200 nM) was pre-incubated for 1 h at 22 °C with compounds at different concentrations in the assay buffer (20 mM HEPES (pH 7), 0.5 mM EDTA, 1 mM dithiothreitol, 5% glycerol). The substrate was then added at a final concentration of 10 μM to the reaction mixture and the reaction was incubated for 4 h at 22 °C. The readings for the different concentrations of the inhibitor compounds incubated with the substrate without Mpro were measured as a blank. The fluorescence signals (excitation/emission, 360 nm/460 nm) of released EDANS were measured using Infinite 200 PRO multimode plate reader (Tecan, USA). The results were plotted as dose inhibition curves using nonlinear regression with a variable slope to determine the IC50 values of inhibitor compounds using GraphPad Prism 9.0.
# HEK293T cells = assay: Cell viability (alamarBlue) on HEK293T cells; conditions: replicate data
# [2] = Cytotoxicity assay (alamarBlue) on Huh-7.5 cells; conditions: human, CC50, Huh-7.5 cells, alamarBlue reduction
# SARS-CoV-2 [3] = assay type: cell-based; conditions: Huh-7.5, MOI 0.1, 24 h.p.i., anti-N IFA
# SARS-CoV-2 [4] = assay: microbe, parasite or virus in culture; assay type: cell-based; conditions: for virus titer at 24 h.p.i., Fig 6A data: single drug 1 μM, Huh 7.5, replicates
# SARS-CoV-2 [5] = conditions: Vero E6 cells; cited from earlier work
# SARS-CoV-2 Mpro [6] = target: T1, SARS-CoV-2 Mpro; assay: In-cell protease (ICP) assay, Mpro construct in HEK293T cells; assay type: cell-based; conditions: for remaining activity at 1 µM / remaining activity at 10 µM: HEK-293T; for remaining activity at 1 µM: read-out: mEmerald-NLS nuclear/total fluorescence (protease activity) normalized to untreated cells, 1 μM, HEK293T, Fig 2A replicate data, untreated control = 100; for remaining activity at 10 µM: read-out: mEmerald-NLS nuclear/total fluorescence (protease activity) normalized to untreated cells, 10 μM, HEK293T, Fig 2A replicate data, untreated control = 100
# SARS-CoV-2 PLpro [7] = target: T2, SARS-CoV-2 PLpro (Severe acute respiratory syndrome coronavirus 2, UniProt P0DTC1); assay: In vitro PLpro protease inhibition assay (Z-RLRGG-AMC); assay type: biochemical
# SARS-CoV-2 [8] = assay: qRT-PCR of viral RNA molecules in infected Huh-7.5 cells; assay type: cell-based; conditions: Huh-7.5, 24 h.p.i.
# Experimental: We tested the effect of selected compounds in inhibiting the spread of SARS-CoV-2 on cell monolayers was tested by immunofluorescence assay (IFA) (Fig. 5a). From the percentage of inhibition (Fig. 5b), we calculated that the PLpro inhibitors Sitagliptin and Daclastavir inhibited virus spread by 75% and 70%, respectively, compared to untreated controls (Fig. 5b). […] We next determined whether the reduction in virus spread in the inhibitor-treated cells correlates with virus replication. We extracted total RNA from infected cells treated with inhibitors and quantified the number of viral RNA molecules by quantitative real-time polymerase chain reaction (qRT-PCR) (Fig. 5c). […] However, the reduction in the number of viral RNA molecules was lower for BMS-707035 (1-log reduction), Atazanavir (0.5-log), and Lomibuvir (0.5-log).
# Fig. 5 Effect of compounds selected from ICP assay on SARS-CoV-2 replication. a Huh-7.5 cells positive for SARS-CoV-2 determined by immunofluorescence assay. Huh-7.5 cells pre-treated for 24 h with inhibitors were infected with SARS-CoV-2 at an MOI of 0.1. At 24 h.p.i., cells were fixed with paraformaldehyde and probed with anti-N (SARS CoV-2 nucleocapsid) primary antibody and FITC-conjugated goat anti-rabbit secondary antibody (green, infected cells). Nuclei were stained with Hoechst stain and confocal images were acquired. b The ratio of infected to uninfected cells for each treatment was calculated using Nikon Elements software and normalized to untreated controls (n = 5). c Quantification of SARS-CoV-2 RNA molecules from infected cells treated with inhibitors as indicated (n = 3).
# Huh-7.5 cells grown in DMEM in 6 well tissue culture plates were pre-treated with different concentrations of compounds for 24 h were infected with 0.1 MOI of SARS-CoV-2. After 1 h of infection, virus-containing media were replaced with fresh media-containing compounds, and the plates were incubated at 37 °C. Untreated cells were included in the experiment as controls. After 24 h, total RNA was extracted from the cells using a Zymopure Quick-RNA extraction kit. The number of viral RNA molecules in the extracted total RNA samples was determined by quantitative RT-PCR on a QuantStudio-3 machine (Applied BioSystems) using primers –Forward […] and Reverse […]. The Ct values obtained were used to calculate the number of RNA molecules using a standard curve of Ct versus RNA molecules.
# Mpro [9] = conditions: read-out: IC50, reported value; cited from earlier work
# SARS-CoV-2 [10] = assay: Time of addition (pre-treatment) experiment in Huh-7.5 cells, plaque assay; assay type: cell-based; conditions: Huh-7.5, pretreatment
# Huh-7.5 cells = assay: Cytotoxicity assay (alamarBlue) on Huh-7.5 cells; conditions: Huh-7.5 cells, alamarBlue reduction
# SARS-CoV = conditions: Vero E6 cells; cited from earlier work
# in vitro = conditions: human, CC50, Huh-7.5 cells, alamarBlue reduction
# Mpro [11] = conditions: thermal shift assay as worded; cited from earlier work
# SARS-CoV-2 PLpro [12] = target: T2, SARS-CoV-2 PLpro; assay: cell-based; conditions: HEK-293T; for remaining activity at 10 µM: read-out: mEmerald-NLS nuclear/total fluorescence (protease activity) normalized to untreated cells, 10 μM, HEK293T, Fig 2A replicate data, untreated control = 100
# COVID-19 = tested on: COVID-19; set-up: method as in PMID 32994187; conditions: cited from earlier work
# [13] = Severe acute respiratory syndrome coronavirus 2, Huh7.5, Huh-7.5 cells, MOI 0.1, 24 h.p.i., plaque assay
# [14] = Severe acute respiratory syndrome coronavirus 2, Huh7.5, 24 h
SMILES,inhibition of Mpro protease activity (SARS-CoV-2 Mpro [1]),CC50 at 24 h [2] [nM],inhibition of virus spread compared to untreated controls (SARS-CoV-2 [3]),EC50 (SARS-CoV-2 [4]; [13]) [nM],remaining activity at 1 µM (SARS-CoV-2 Mpro [6]) [%],remaining activity at 10 µM (SARS-CoV-2 Mpro [6]) [%],reduction in the number of viral RNA molecules compared to untreated cells (SARS-CoV-2 [8]),effect of pre-treatment on virus production / entry (SARS-CoV-2 [10]),CC50 (Huh-7.5 cells) [nM],further results
COC(=O)N[C@H](C(=O)N[C@@H](Cc1ccccc1)[C@@H](O)CN(Cc1ccc(-c2ccccn2)cc1)NC(=O)[C@@H](NC(=O)OC)C(C)(C)C)C(C)(C)C [Atazanavir],not found to be effectively inhibiting the Mpro protease activity,77200,below 50%,60,89,50,–,–,–,% normalised alamar Blue reduction at 10μM (HEK293T cells; listed as Atazanavir sulfate): 89% and 95.2% and 90.5%; EC50 (SARS-CoV-2 [5]): 500 ± 80 nM
COC(=O)N[C@H](C(=O)N1CCC[C@H]1c1nc(-c2ccc(-c3ccc(-c4c[nH]c([C@@H]5CCCN5C(=O)[C@@H](NC(=O)OC)C(C)C)n4)cc3)cc2)c[nH]1)C(C)C [Daclastavir HCl],–,32100,70%,1590,–,–,2 log,–,–,IC50 (SARS-CoV-2 PLpro [7]): 1840 ± 256 nM; % normalised alamar Blue reduction at 10μM (HEK293T cells; listed as Daclatasvir dihydrochloride): 89% and 80% and 96%
CC(C)C[C@H](NC(=O)OCc1ccccc1)C(=O)N[C@@H](CC1CCNC1=O)C(O)S(=O)(=O)O (some centres unmarked) [GC376],–,–,–,–,–,–,–,–,–,IC50 (SARS-CoV-2 Mpro [1]): 130 ± 70 nM; IC50 (Mpro [9]): 190 nM
O[C@H]1[C@H]2c3cc4c(cc3CN3CCC(=C[C@@H]1O)[C@H]23)OCO4 [Lycorine HCl],not found to be effectively inhibiting the Mpro protease activity,18800,88%,–,43,25,–,only minimal effect on virus production,19000,% normalised alamar Blue reduction at 10μM (HEK293T cells; listed as Lycorine hydrochloride): 76% and 65% and 69.32%; Selectivity index SI = CC50/EC50 (SARS-CoV-2 [4]; Huh-7.5 cells): 1878; EC50 (SARS-CoV-2 [4]; [14]): 10 nM; EC50 (SARS-CoV-2 [5]): 300 nM; EC50 (SARS-CoV): 16 nM
CCCC[C@@H](C=O)NC(=O)[C@H](CC(C)C)NC(=O)[C@H](CC(C)C)NC(C)=O [MG-101] (Ac-Leu-Leu-[Nle]-aldehyde),–,–,95%,–,22,8.9,–,affect the virus entry,–,"reduction in virus titer on pretreatment of cells (SARS-CoV-2 [10]): 1 log; IC50 (SARS-CoV-2 Mpro [1]; Mpro 200 nM, substrate 10 μM, 1 h pre-incubation, read-out: IC50): 2890 ± 860 nM; CC50 at 24 h (in vitro): 37000 nM; EC50 (SARS-CoV-2 [4]; [14]): 38 nM; virus titer at 24 h.p.i., Fig 6A data (SARS-CoV-2 [4]): 48000 and 56000 and 44000; IC50 (Mpro [11]): 8600 nM; remaining activity at 1 µM (SARS-CoV-2 PLpro [12]; read-out: mEmerald-NLS nuclear/total fluorescence (protease activity) normalized to untreated cells, 1 μM, HEK293T, Fig 2A replicate data, untreated control = 100): 68%; remaining activity at 10 µM (SARS-CoV-2 PLpro [12]): 70%"
Cc1c(O)cccc1C(=O)N[C@@H](CSc1ccccc1)[C@H](O)CN1C[C@H]2CCCC[C@H]2C[C@H]1C(=O)NC(C)(C)C [Nelfinavir mesylate],not found to be effectively inhibiting the Mpro protease activity,26000,95%,70,60,45,approximately 3 log,only minimal effect on virus production,26000,"% normalised alamar Blue reduction at 10μM (HEK293T cells): 88% and 75.67% and 90%; reduction in the number of viral RNA molecules compared to untreated cells (SARS-CoV-2 [8]; listed as Nelfinavir): 3 log; virus titer at 24 h.p.i., Fig S2B data (SARS-CoV-2 [4]; 1 µM final concentration (each), Huh-7.5, replicates): 80000 and 64000 and 88000"
N[C@@H](CC(=O)N1CCn2c(nnc2C(F)(F)F)C1)Cc1cc(F)c(F)cc1F [Sitagliptin],–,–,75%,320,–,–,2 log,–,22000,"CC50 at 24 h (in vitro): 21600 nM; IC50 (SARS-CoV-2 PLpro [7]; PLpro 300 nM, Z-RLRGG-AMC 25 μM, read-out: IC50): 1140 ± 190 nM; Selectivity index SI = CC50/EC50 (SARS-CoV-2 [4]): 67; virus titer at 24 h.p.i., Fig 6A data (SARS-CoV-2 [4]): 56000 and 64000 and 40000; mortality rate (deceased patients) (COVID-19; added to standard care, vs. 37% with standard of care): 18%; improved clinical outcomes (improved patients) (COVID-19; vs. 38% with standard of care): 60%; hospital discharges (discharged patients) (COVID-19; vs. 89 with standard of care): 120; remaining activity at 10 µM (SARS-CoV-2 PLpro [12]): 56%; effect on Mpro activity in cells (SARS-CoV-2 Mpro [6]; ICP assay): does not inhibit Mpro activity"

# From paper PMC8881501, “Identification of SARS-CoV-2 inhibitors targeting Mpro and PLpro using in-cell-protease assay” (Communications Biology, 2022)
